# From patent US20050009772A1, “Methods and compositions for the treatment of glaucoma and other retinal diseases” (The Regents of the University of California, priority 2003, published 2005)
# Entries after “also recorded” stand apart in the source; their conditions may differ.
# Assays:
# HSC70 = test: Western blot for HSC70 in enriched RGC fraction after systemic administration of GGA (Experiment 1); assay type: in vivo, rat; conditions: GGA 200 mg/kg daily i.p. 1, 3, 7 days vs control groups
# Procedure: Three experiments are summarized here, and details are provided in the subsequent sections. […] For Western blotting, twelve rats were equally divided into 6 groups. […] Enriched RGC fraction was harvested from 2 retinas of each group and used for Western blot analysis. The same experiment for isolation of RGCs and Western blotting was repeated with the other 2 retinas-from each group.
# GGA was a gift from Esai Co, Ltd (Tokyo, Japan). […] Saline-vehicle was prepared and administered in the same fashion in vehicle-treated control groups.
# A previously described method was modified to partially purify RGCs from other retinal cells in rat retinas.38 Briefly, two dissected rat retinas from each subgroup were washed in 2.5 ml of calcium- and magnesium-free phosphate buffered saline (PBS) at pH 7.4, and incubated in 1.25 ml of PBS containing 0.5 mg/ml trypsin and 0.01% deoxyribonuclease for 15 minutes at 37° C. […] The cells were then resuspended in 400 μl of MEM buffer, and the protein concentration in the cell suspension was measured with a bicinchoninic acid (BCA) protein assay kit (Pierce, Rockford, Ill.).
# The membrane was blocked by incubation in 0.1% Tween-20 in 100 mM Tris-buffered saline containing 10% nonfat dried milk for 1 hour. […] The immunoreactive bands were detected by chemiluminescence with an enhanced chemiluminescence Western blot reagent (Amersham Pharmacia).
# [1] = tested on: cells in the retinal ganglion cell layer (RGCL); test: Counting of cresyl violet-stained cells in the RGCL in rat glaucoma model (Experiment 2); assay type: in vivo
# Procedure: GGA was then given twice a week at the same dose until euthanasia. Sustained elevation of intraocular pressure (IOP) was maintained by performing trabecular laser photocoagulation three weeks after the first photocoagulation. […] IOP and body weight were measured once a week. After 5 weeks of IOP elevation, the number of retrogradely labeled RGCs with dextran tetramethylrhodamine (DTMR) was counted (n=53). The grading of optic nerve injury and the counting of cresyl violet-stained cells in the retinal ganglion cell layer (RGCL) was also performed (n=54).
# Rats were anesthetized with intramuscular injections of 0.8 ml/kg of the anesthetic cocktail described above. A previously published procedure was modified to produce chronic moderately elevated IOP unilaterally, while the untreated contralateral eye served as the comparative control.40 Animals were injected intracamerally with 10 μl of 35% India ink (Becton Dickinson, Cockeysville, Md.) in 0.01 M PBS after removing a similar volume of aqueous. At the end of the procedure, Tobrex ophthalmic ointment (tobramycin 0.3%; Alcon, Fort Worth, Tex.) was applied topically. Five days after intracameral injection of India ink, a dark band at the limbus was noted due to the aggregation of carbon particles in the trabecular meshwork.38 After anesthesia, approximately 200 laser burns were delivered ab externo to the pigmented trabecular band at laser settings of 200 μm diameter, 200 mW power and 0.2 seconds duration. Three weeks after the first laser treatment, another trabecular laser photocoagulation was performed without further injection of ink.
# Corresponding loss of cells from the RGCL was evaluated by counting cells in the RGCL in cresyl violet-stained retinas. After collecting the optic nerves, enucleated eyeballs were postfixed in 10% neutral buffered formalin for 1 hour and washed in 0.1 M phosphate buffer (pH 7.4). The retinas were dissected and flat mounted on a slide, vitreal side up. Four radial cuts were made in the peripheral retinas. The specimens were dried overnight, stained with 1% cresyl violet, dehydrated, and covered with coverslips. Morphologically distinguishable glial cells and vascular endothelial cells were not counted. Cells with cytoplasm rich in Nissl substance and with irregular outlines were counted as neurons.43 The numbers of neurons in the RGCL in regions 1 mm (posterior), 2 mm (mid-peripheral) and 3 mm (peripheral) from the center of the optic nerve head were taken with an eye-piece reticule of a microscope at 400× magnification. The counting was performed by two investigators in a masked fashion and averaged.
substance,measurement,setting,value
Geranylgeranylacetone [GGA],immunoreactivity against HSC70 in RGCs (immunoblot),HSC70,no change in HSC70 expression; also recorded: no detectable difference
same,cells in the RGCL (cresyl violet),[1]; 5 weeks of elevated IOP,2697±70 cells/mm2
same,effect on loss of cells in the RGCL (in words),[1]; 5 weeks of elevated IOP,inhibited the loss of cells
same,cells in the RGCL (cresyl violet),[1]; contralateral control retinas,2644±59 cells/mm2
same,effect on number of cells in the RGCL (in words),[1]; contralateral control retinas,no significant effect
